Entries after “also recorded” stand apart in the source; their conditions may differ. Where two headings read alike, the source gives them in different places.
How the values were obtained:
[1] = Food intake, body and organ weight in hamster hyperlipidemia model; type: in vivo, Golden Syrian hamsters; conditions: 6 weeks
Method: (§1) Six different experimental diets were prepared by mixing the ingredients according to Table 1 and blending these mixtures with a gelatin solution (20 g/L) in a ratio of 200 g composition per liter of solution. Once the gelatin had set, the product were cut into pieces of approximately 10 g cubes and stored frozen at −80° C. until use.
(§2) 46 male Golden Syrian hamsters (n=46; body weights=110-120 g) were housed in wire-bottomed cages at 23° C. in an animal room with 12-hour light-dark cycle (one per cage). All hamsters were maintained on a standard cereal based diet for two weeks.
(§3) After this acclimation period the hamsters were randomly divided into six test groups and fed one of the experimental diets for another six weeks.

LDL receptor [2] = assay: mRNA of hepatic LDL receptor; type: in vivo, Golden Syrian hamsters; conditions: liver, 6 weeks
[3] = tested on: liver X receptor alpha (LXRα); assay: Immunoblot of hepatic LXRα protein mass; type: in vivo, Golden Syrian hamsters; conditions: western blot, 6 weeks
Golden Syrian hamsters [4] = assay: Analysis of plasma lipoproteins (TC, HDL, non-HDL cholesterol, TG) in hamster hyperlipidemia model; type: in vivo; conditions: for plasma TC compared with the HCD group / plasma TG compared with the HCD group / plasma non-HDL-C compared with the HCD group: end of week 6; for dose dependence of the cholesterol-lowering effect: 0.2% versus 0.3% in diet
Method: as §1, §2, §3
Plasma total cholesterol (TC) and triacylglycerols (TG) were quantified using commercial enzymatic kits from Infinity (Waltham, Mass., U.S.A) and Stanbio Laboratories (Boerne, Tex., U.S.A.), respectively. To determine high-density lipoprotein cholesterol (HDL), low-density lipoprotein cholesterol (LDL) and very low-density lipoprotein cholesterol (VLDL) were first precipitated with a commercial kit (Stanbio) containing phosphotungstic acid and magnesium chloride. HDL cholesterol in supernatant phase was measured similarly as done for TC. Non-HDL cholesterol was calculated by deducing HDL cholesterol from TC.

Golden Syrian hamsters [5] = assay: Analysis of liver cholesterol and dihydrocholesterol in hamster hyperlipidemia model; type: in vivo; conditions: 6 weeks
Method: as §1, §3
Cholesterol content in organs was determined by a standard method. Cholesterol in the tissue sample was calculated according to the amount of internal standard 5α-cholestanol added.

Golden Syrian hamsters [6] = type: in vivo; conditions: 6 weeks
Golden Syrian hamsters [7] = assay: Analysis of fecal neutral and acidic sterols in hamster hyperlipidemia model; type: in vivo; conditions: for increase in excretion of cholesterol and its microbial derivatives compared with the HCD control: feces
Method: as §1, §3
Neutral and acidic sterols in the feces were quantified by a standard method using gas chromatography (GC). In brief, the total fecal sample (300 mg) from each hamster was freeze-dried, ground and well mixed. 0.3 mg of 5α-cholestanol was added as an internal standard for quantification of neutral sterols by GC analysis. The remaining aqueous layer was saved for the analysis of acidic sterols.

LDL receptor [8] = assay: Immunoblot of hepatic LDL receptor protein mass; type: in vivo, Golden Syrian hamsters; conditions: liver, western blot; 0.3% in high cholesterol diet, 6 weeks
[9] = 0.2% in high cholesterol diet, week 6
[10] = 0.3% in high cholesterol diet, week 6

SMILES	epididymal fat pad weight compared with the control ([1]; 0.2% in high cholesterol diet)	kidney weight compared with HCD ([1]; 0.2% in high cholesterol diet)	liver weight compared with the HCD group ([1]; 0.2% in high cholesterol diet)	kidney weight compared with HCD ([1]; 0.3% in high cholesterol diet)	liver weight compared with the HCD group ([1]; 0.3% in high cholesterol diet)	Body Weight Final ([1]; 0.2% in high cholesterol diet) [g]	Body Weight Final ([1]; 0.3% in high cholesterol diet) [g]	mRNA level of the LDL receptor compared with the HCD control (LDL receptor [2]; 0.2% in high cholesterol diet)	mRNA level of the LDL receptor compared with the HCD control (LDL receptor [2]; 0.3% in high cholesterol diet)	LXRα protein mass ([3]; 0.2% in high cholesterol diet)	LXRα protein mass ([3]; 0.3% in high cholesterol diet)	plasma TC compared with the HCD group (Golden Syrian hamsters [4]; 0.2% in high cholesterol diet)	plasma TG compared with the HCD group (Golden Syrian hamsters [4]; 0.2% in high cholesterol diet)	plasma non-HDL-C compared with the HCD group (Golden Syrian hamsters [4]; 0.2% in high cholesterol diet)	dose dependence of the cholesterol-lowering effect (Golden Syrian hamsters [4])	plasma TC compared with the HCD group (Golden Syrian hamsters [4]; 0.3% in high cholesterol diet)	plasma TG compared with the HCD group (Golden Syrian hamsters [4]; 0.3% in high cholesterol diet)	plasma non-HDL-C compared with the HCD group (Golden Syrian hamsters [4]; 0.3% in high cholesterol diet)	decrease in liver cholesterol (Golden Syrian hamsters [5]; 0.2% in high cholesterol diet) [%]	hepatic cholesterol levels compared with the HCD control (Golden Syrian hamsters [5]; 0.2% in high cholesterol diet)	other results
CC(C)CCC[C@@H](C)[C@H]1CC[C@H]2[C@@H]3CC[C@H]4C[C@@H](O)CC[C@]4(C)[C@H]3CC[C@]12C [DHC, dihydrocholesterol]	decreased	no significant difference	decreased	reduced	decreased	115.38 ± 9.02	115.43 ± 7.00	up-regulated	up-regulated	up-regulated LXRα slightly	up-regulated LXRα slightly	significantly lower; also recorded: significantly reduces	significantly lower; also recorded: significantly reduces	significantly lower	not dose-dependent	significantly lower; also recorded: significantly reduces	significantly lower; also recorded: significantly reduces	significantly lower	67.5	significantly lower	reducing serum TG, compared with β-sitosterol (Golden Syrian hamsters [4]; 0.2% and 0.3% diets): more effective than β-sitosterol; DHC accumulated in the liver (Golden Syrian hamsters [5]; 0.2% DHC in high cholesterol diet (DA)): about 2 mg DHC/g liver; reducing the liver cholesterol, compared with SA and SB (β-sitosterol) (Golden Syrian hamsters [5]; 0.2% and 0.3% diets): more effective; DHC accumulated in the liver (Golden Syrian hamsters [5]; 0.3% DHC in high cholesterol diet (DB)): about 2 mg DHC/g liver; decrease in liver cholesterol (Golden Syrian hamsters [5]; 0.3% in high cholesterol diet): 71.5%; hepatic cholesterol levels compared with the HCD control (Golden Syrian hamsters [5]; 0.3% in high cholesterol diet): significantly lower; atherosclerotic plague compared with the HCD control group (Golden Syrian hamsters [6]; 0.2% in high cholesterol diet): significantly lesser; atherosclerotic plague compared with the HCD control group (Golden Syrian hamsters [6]; 0.3% in high cholesterol diet): significantly lesser; excretion of total neutral sterols compared with corresponding SA and SB (β-sitosterol) groups (Golden Syrian hamsters [7]; 0.2% and 0.3% diets, week 6): greater; total fecal neutral sterols excreted compared with the controls (Golden Syrian hamsters [7]; [9]): greater; total fecal neutral sterols excreted compared with the controls (Golden Syrian hamsters [7]; [10]): greater; increase in excretion of cholesterol and its microbial derivatives compared with the HCD control (Golden Syrian hamsters [7]; 0.2% in high cholesterol diet): 11.5 fold; increase in excretion of cholesterol and its microbial derivatives compared with the HCD control (Golden Syrian hamsters [7]; 0.3% in high cholesterol diet): 19.1 fold
CC[C@H](CC[C@@H](C)[C@H]1CC[C@H]2[C@@H]3CC=C4C[C@@H](O)CC[C@]4(C)[C@H]3CC[C@]12C)C(C)C [β-sitosterol, reference compound]	decreased	reduced	decreased	no significant difference	decreased	118.43 ± 13.74	112.00 ± 8.05	up-regulated	up-regulated	significantly up-regulated	significantly up-regulated	significantly lower	significantly lower	significantly lower	dose-dependent	significantly lower	significantly lower	significantly lower	30.5	significantly lower	epididymal fat pad weight compared with the control ([1]; 0.3% in high cholesterol diet): decreased; reducing plasma TC, compared with DHC (Golden Syrian hamsters [4]; [10]): more effective than DHC; decrease in liver cholesterol (Golden Syrian hamsters [5]; 0.3% in high cholesterol diet): 38.4%; hepatic cholesterol levels compared with the HCD control (Golden Syrian hamsters [5]; 0.3% in high cholesterol diet): significantly lower; reducing the formation of atherosclerotic plague, compared with DA and DB (DHC) diets (Golden Syrian hamsters [6]; 0.2% and 0.3% diets): more effective; atherosclerotic plague compared with the HCD control group (Golden Syrian hamsters [6]; 0.2% in high cholesterol diet): significantly lesser; atherosclerotic plague compared with the HCD control group (Golden Syrian hamsters [6]; 0.3% in high cholesterol diet): significantly lesser; excretion of acidic sterols compared with corresponding DA and DB (DHC) groups (Golden Syrian hamsters [7]; 0.2% and 0.3% diets, week 6): greater; total fecal neutral sterols excreted compared with the controls (Golden Syrian hamsters [7]; [9]): greater; total fecal neutral sterols excreted compared with the controls (Golden Syrian hamsters [7]; [10]): greater; LDL receptor protein (LDL receptor [8]): significantly up-regulated

Reference: patent publication US20170281650A1 (priority 2014, published 2017)
